Drawing on US10385069B2, “Imidazo[2,1-B]thiazole and 5,6-dihydroimidazo[2,1-B]thiazole derivatives useful as S100-inhibitors” (Active Biotech AB, priority 2015, dated 2019), this text covers IC50 for 32 compounds.

The target in this assay is T1, interaction between biotinylated human S100A9 and human RAGE-Fc (Homo sapiens, UniProt P06702).
T1 construct: made in house; host or cells: E. coli
T1 sequence (P06702 1-114): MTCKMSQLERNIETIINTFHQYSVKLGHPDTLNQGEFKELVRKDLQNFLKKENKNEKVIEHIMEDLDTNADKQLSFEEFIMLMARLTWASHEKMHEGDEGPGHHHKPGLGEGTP
Briefly: AlphaScreen inhibition assay, biot-hS100A9:hRAGE-Fc. Type of assay: binding. The following applies: biot-hS100A9 pre-incubated with compound 1 h, assay buffer with CaCl2 and ZnCl2. The method in brief: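 Biotinylated human S100A9, preincubated with compound, binds human RAGE-Fc on protein A Acceptor beads in HBS-P with CaCl2 and ZnCl2; streptavidin Donor beads added, AlphaScreen signal read. Protein levels set by cross-titration; beads 20 μg/mL final. Percent inhibition versus DMSO control; IC50 from varied compound concentrations.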
(In Alpha technology, singlet oxygen from a donor bead excites a nearby acceptor bead.)
What is called IC50 is the concentration needed to halve the response being measured. As for `C#Cc1c(C(=O)O)nc2sc3c(n12)CC(C)(C)CC3(C)C` [Example 229, 3-Ethynyl-9,9,11,11-tetramethyl-7-thia-2,5-diazatricyclo[6.4.0.0^2,6]dodeca-1(8),3,5-triene-4-carboxylic acid], the IC50 stood at 740 nM.

For `O=C(O)c1cn2c(n1)sc1cc(Cl)c(OC(F)(F)F)cc12` [Example 230, 10-Chloro-11-(trifluoromethoxy)-7-thia-2,5-diazatricyclo[6.4.0.0^2,6]dodeca-1(8),3,5,9,11-pentaene-4-carboxylic acid], the IC50 stood at 980 nM.

For `CS(=O)(=O)Nc1c(C(=O)O)nc2sc3c(Cl)c(F)ccc3n12` [Example 232, 9-Chloro-10-fluoro-3-methanesulfonamido-7-thia-2,5-diazatricyclo[6.4.0.0^2,6]dodeca-1(8),3,5,9,11-pentaene-4-carboxylic acid], the IC50 amounted to 200 nM.

With `CC1(C)Cc2c(sc3nc(C(=O)O)c(N4CCOCC4)n23)C(C)(C)C1` [Example 233, 9,9,11,11-Tetramethyl-3-(morpholin-4-yl)-7-thia-2,5-diazatricyclo[6.4.0.0^2,6]dodeca-1(8),3,5-triene-4-carboxylic acid], the IC50 was 430 nM.

On to `Cc1c(C(=O)O)nc2sc3c(Cl)c(F)ccc3n12` [Example 234, 9-Chloro-10-fluoro-3-methyl-7-thia-2,5-diazatricyclo[6.4.0.0^2,6]dodeca-1(8),3,5,9,11-pentaene-4-carboxylic acid], for which the half-inhibitory concentration (IC50) was 90 nM.

Take `CC1(C)Cc2c(sc3nc(C(=O)O)c(C4CNC4)n23)C(C)(C)C1` [Example 235, 3-(Azetidin-3-yl)-9,9,11,11-tetramethyl-7-thia-2,5-diazatricyclo[6.4.0.0^2,6]dodeca-1(8),3,5-triene-4-carboxylic acid]: the IC50 came to 1680 nM.

`O=C(O)c1nc2sc3c(Cl)c(F)ccc3n2c1N1CCOCC1` [Example 238, 9-Chloro-10-fluoro-3-(morpholin-4-yl)-7-thia-2,5-diazatricyclo[6.4.0.0^2,6]dodeca-1(8),3,5,9,11-pentaene-4-carboxylic acid]: the half-inhibitory concentration (IC50) was 200 nM.

Take `O=C(O)C1CN2C(=N1)Sc1c2ccc(Br)c1Cl` (centres unmarked) [Example 240, 10-Bromo-9-chloro-7-thia-2,5-diazatricyclo[6.4.0.0^2,6]dodeca-1(8),5,9,11-tetraene-4-carboxylic acid]: the IC50 came to 430 nM.

Consider `O=C(O)c1cn2c(n1)sc1c(Cl)c(Cl)cc(OCCN3CCOCC3)c12` [Example 241, 9,10-Dichloro-12-[2-(morpholin-4-yl)ethoxy]-7-thia-2,5-diazatricyclo[6.4.0.0^2,6]dodeca-1(8),3,5,9,11-pentaene-4-carboxylic acid], for which the IC50 turned out to be 690 nM.

Take `CC(C)(C)C1CCc2c(sc3nc(C(=O)O)c(CN4CCOCC4)n23)C1` (centres unmarked) [Example 242, 10-tert-Butyl-3-(morpholin-4-ylmethyl)-7-thia-2,5-diazatricyclo[6.4.0.0^2,6]dodeca-1(8),3,5-triene-4-carboxylic acid]: the IC50 stood at 1390 nM.

Regarding `O=C(O)c1cn2c(n1)sc1c(Cl)c(Br)ccc12` [Example 243, 10-Bromo-9-chloro-7-thia-2,5-diazatricyclo[6.4.0.0^2,6]dodeca-1(8),3,5,9,11-pentaene-4-carboxylic acid], the IC50 was determined as 210 nM.

On to `CC(C)(C)C1CCc2c(sc3nc(C(=O)O)c(CN4CCCCC4=O)n23)C1` (centres unmarked) [Example 244, 10-tert-Butyl-3-[(2-oxopiperidin-1-yl)methyl]-7-thia-2,5-diazatricyclo[6.4.0.0^2,6]dodeca-1(8),3,5-triene-4-carboxylic acid], for which the IC50 is 1130 nM.

For the compound `Cc1c(C(=O)O)nc2sc3c(n12)CC(C)(C)CC3(C)C` [Example 245, 3,9,9,11,11-Pentamethyl-7-thia-2,5-diazatricyclo[6.4.0.0^2,6]dodeca-1(8),3,5-triene-4-carboxylic acid], the IC50 was 270 nM.

Turning to `CC1(C)Cc2c(sc3nc(C(=O)O)c(CN4CCOCC4)n23)C(C)(C)C1` [Example 246, 9,9,11,11-Tetramethyl-3-(morpholin-4-ylmethyl)-7-thia-2,5-diazatricyclo[6.4.0.0^2,6]dodeca-1(8),3,5-triene-4-carboxylic acid], the IC50 is 600 nM.

For `COc1ccccc1-c1c(C(=O)O)nc2sc3c(n12)CC(C)(C)CC3(C)C` [Example 247, 3-(2-Methoxyphenyl)-9,9,11,11-tetramethyl-7-thia-2,5-diazatricyclo[6.4.0.0^2,6]dodeca-1(8),3,5-triene-4-carboxylic acid], the IC50 was 1530 nM.

Consider `O=C(O)c1cn2c(n1)sc1c(Cl)c(N3CCCC3)ccc12` [Example 248, 9-Chloro-10-(pyrrolidin-1-yl)-7-thia-2,5-diazatricyclo[6.4.0.0^2,6]dodeca-1(8),3,5,9,11-pentaene-4-carboxylic acid], for which the half-inhibitory concentration (IC50) was found to be 1000 nM.

Turning to `CC(C)CC1(C(=O)O)CN2C(=N1)Sc1c2ccc(F)c1Cl` (centres unmarked) [Example 249, 9-Chloro-10-fluoro-4-(2-methylpropyl)-7-thia-2,5-diazatricyclo[6.4.0.0^2,6]dodeca-1(8),5,9,11-tetraene-4-carboxylic acid], the IC50 amounted to 690 nM.

For the compound `CC1(C(=O)O)CN2C(=N1)Sc1c2ccc(F)c1Cl` (centres unmarked) [Example 250, 9-Chloro-10-fluoro-4-methyl-7-thia-2,5-diazatricyclo[6.4.0.0^2,6]dodeca-1(8),5,9,11-tetraene-4-carboxylic acid], the IC50 came out at 670 nM.

Take `O=C(O)c1cn2c(n1)sc1c(Cl)c(C3CC3)ccc12` [Example 252, 9-Chloro-10-cyclopropyl-7-thia-2,5-diazatricyclo[6.4.0.0^2,6]dodeca-1(8),3,5,9,11-pentaene-4-carboxylic acid]: the IC50 came to 290 nM.

As for `CC(C)(C)C1CCc2c(sc3nc(C(=O)O)c(Br)n23)C1` (centres unmarked) [Example 253, 3-Bromo-10-tert-butyl-7-thia-2,5-diazatricyclo[6.4.0.0^2,6]dodeca-1(8),3,5-triene-4-carboxylic acid], the IC50 stood at 1680 nM.

For the compound `COc1ccc(-c2c(C(=O)O)nc3sc4c(n23)CC(C)(C)CC4(C)C)cc1` [Example 254, 3-(4-Methoxyphenyl)-9,9,11,11-tetramethyl-7-thia-2,5-diazatricyclo[6.4.0.0^2,6]dodeca-1(8),3,5-triene-4-carboxylic acid], the 50% inhibitory concentration (IC50) turned out to be 1150 nM.

For the compound `CC(=O)NCc1c(C(=O)O)nc2sc3c(n12)CCC(C(C)(C)C)C3` (centres unmarked) [Example 255, 10-tert-Butyl-3-(acetamidomethyl)-7-thia-2,5-diazatricyclo[6.4.0.0^2,6]dodeca-1(8),3,5-triene-4-carboxylic acid], the IC50 is 1150 nM.

Regarding `CC(C)(C)C1CCc2c(sc3nc(C(=O)O)c(CO)n23)C1` (centres unmarked) [Example 256, 10-tert-Butyl-3-(hydroxymethyl)-7-thia-2,5-diazatricyclo[6.4.0.0^2,6]dodeca-1(8),3,5-triene-4-carboxylic acid], the IC50 came to 500 nM.

`CON(C)Cc1c(C(=O)O)nc2sc3c(n12)CCC(C(C)(C)C)C3` (centres unmarked) [Example 257, 10-tert-Butyl-3-{[methoxy(methyl)amino]methyl}-7-thia-2,5-diazatricyclo[6.4.0.0^2,6]dodeca-1(8),3,5-triene-4-carboxylic acid]: the half-maximal inhibitory concentration (IC50) was found to be 890 nM.

Take `CC1(C)Cc2c(sc3nc(C(=O)O)c(C4CC4)n23)C(C)(C)C1` [Example 258, 3-Cyclopropyl-9,9,11,11-tetramethyl-7-thia-2,5-diazatricyclo[6.4.0.0^2,6]dodeca-1(8),3,5-triene-4-carboxylic acid]: the 50% inhibitory concentration (IC50) came out at 510 nM.

Consider `O=C(O)c1cn2c(n1)sc1c(Cl)c(Cl)c(OCCN3CCOCC3)cc12` [Example 261, 9,10-Dichloro-11-[2-(morpholin-4-yl)ethoxy]-7-thia-2,5-diazatricyclo[6.4.0.0^2,6]dodeca-1(8),3,5,9,11-pentaene-4-carboxylic acid], for which the IC50 was found to be 550 nM.

For the compound `O=C(O)C1(Cc2ccccc2)CN2C(=N1)Sc1c2ccc(F)c1Cl` (centres unmarked) [Example 262, 4-Benzyl-9-chloro-10-fluoro-7-thia-2,5-diazatricyclo[6.4.0.0^2,6]dodeca-1(8),5,9,11-tetraene-4-carboxylic acid], the IC50 turned out to be 770 nM.

Take `O=C(O)C1(CO)CN2C(=N1)Sc1c2ccc(F)c1Cl` (centres unmarked) [Example 263, 9-Chloro-10-fluoro-4-(hydroxymethyl)-7-thia-2,5-diazatricyclo[6.4.0.0^2,6]dodeca-1(8),5,9,11-tetraene-4-carboxylic acid]: the IC50 is 1060 nM.

Turning to `O=C(O)c1cn2c(n1)sc1c(Cl)c(N3CC(F)(F)C3)ccc12` [Example 266, 9-Chloro-10-(3,3-difluoroazetidin-1-yl)-7-thia-2,5-diazatricyclo[6.4.0.0^2,6]dodeca-1(8),3,5,9,11-pentaene-4-carboxylic acid], the half-maximal inhibitory concentration (IC50) stood at 950 nM.

For `COCCN1CCN(Cc2c(C(=O)O)nc3sc4c(n23)CCC(C(C)(C)C)C4)CC1` (centres unmarked) [Example 272, 10-tert-Butyl-3-{[4-(2-methoxyethyl)piperazin-1-yl]methyl}-7-thia-2,5-diazatricyclo[6.4.0.0^2,6]dodeca-1(8),3,5-triene-4-carboxylic acid], the IC50 amounted to 1770 nM.

For `CN1CCN(Cc2c(C(=O)O)nc3sc4c(n23)CCC(C(C)(C)C)C4)CC1` (centres unmarked) [Example 273, 10-tert-Butyl-3-[(4-methylpiperazin-1-yl)methyl]-7-thia-2,5-diazatricyclo[6.4.0.0^2,6]dodeca-1(8),3,5-triene-4-carboxylic acid], the IC50 is 1490 nM.

Consider `CC(=O)N1CCN(Cc2c(C(=O)O)nc3sc4c(n23)CCC(C(C)(C)C)C4)CC1` (centres unmarked) [Example 275, 3-[(4-Acetylpiperazin-1-yl)methyl]-10-tert-butyl-7-thia-2,5-diazatricyclo[6.4.0.0^2,6]dodeca-1(8),3,5-triene-4-carboxylic acid], for which the IC50 worked out at 1090 nM.
